Our source for the IC50 values is article PMC11418391, “Benzenesulfonohydrazide-tethered non-fused and fused heterocycles as potential anti-mycobacterial agents targeting enoyl acyl carrier protein reductase (InhA) with antibiofilm activity” (RSC Advances, 2024).

The test has as its target Enoyl acyl carrier protein (ACP) reductase (InhA) (Mycobacterium tuberculosis, UniProt P9WGR1). Briefly: colorimetric InhA assay, NADH oxidation at […] nm with 2-trans-octanoyl-CoA. Type of test: biochemical.

The structures appear in SMILES notation.

Sequence of Enoyl acyl carrier protein (ACP) reductase (InhA) (P9WGR1 whole entry, looked up): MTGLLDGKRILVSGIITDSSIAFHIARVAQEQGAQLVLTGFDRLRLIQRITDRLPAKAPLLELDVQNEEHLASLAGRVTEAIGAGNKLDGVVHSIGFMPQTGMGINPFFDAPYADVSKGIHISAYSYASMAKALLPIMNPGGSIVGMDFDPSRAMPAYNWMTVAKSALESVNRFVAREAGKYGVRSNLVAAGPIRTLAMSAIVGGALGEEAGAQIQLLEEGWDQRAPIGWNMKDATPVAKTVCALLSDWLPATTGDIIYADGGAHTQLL

Turning to `C/C(=N\NS(=O)(=O)c1ccc(C)cc1)c1c(O)c2ccccc2oc1=O` [compound 3], the IC50 turned out to be 1.62 ± 0.69 µM.
The value for `CC(=NNS(=O)(=O)c1ccc(C)cc1)c1ccccn1` [compound 7] was 0.91 ± 0.03 µM.
